Test results published in patent US20230393122A1 (priority 2022, published 2023).
Read-outs that look alike come from different tables or passages of the source.

Experiments:
SARS-CoV-2 WT [1] = test: Viral load reduction assay in EPSC-derived eSTB cells (qRT-PCR of supernatant viral copies); assay type: cell-based; conditions: for IC50: read-out: IC50 for SARS-CoV-2 in eSTBs
SARS-CoV-2 [2] = conditions: Vero E6 cells; read-out: IC50 against SARS-CoV-2 in Vero E6 cells; cited from earlier work
MERS-CoV = assay type: cell-based; conditions: 48 h.p.i., efficiency comparable to that in Vero E6 cells
SARS-CoV-2 WT [3] = test: Viral load reduction assay in naïve-eSTB cells; assay type: cell-based; conditions: compared with EPSC-eSTBs
[4] = test system: SARS-CoV-2 infected eSTBs; assay type: cell-based, human
SARS-CoV-2 [5] = conditions: cited from earlier work

Compound: CC(C)C[C@H](NC(=O)OCc1ccccc1)C(=O)N[C@@H](CC1CCNC1=O)C(O)S(=O)(=O)O (some centres unmarked) [GC376]
- IC50 (SARS-CoV-2 WT [1]): 31.2 ± 5.6 nM
- IC50 (SARS-CoV-2 [2]): 700 nM

Compound: CC(C)C[C@H](NC(=O)OCc1ccccc1)C(=O)N[C@@H](C[C@@H]1CCNC1=O)C(O)S(=O)(=O)[O-].[Na+] (some centres unmarked) [GC376]
- Viral copy in the supernatant, SARS-CoV-2 WT (FIG. 17B) (SARS-CoV-2 WT [1]; EPSC-derived eSTB cells): dose-dependent inhibition
- MERS-CoV replication in eSTBs (MERS-CoV): effectively block
- IC50 against SARS-CoV-2 in naïve-eSTBs (SARS-CoV-2 WT [3]): similarly low
- eSTB development and differentiation along PI-TB to PI-STB pseudotime trajectory [4]: partially rescued
- Survival of mice with a fatal SARS-CoV-2 infection (SARS-CoV-2 [5]): increases survival

Compound: CCC(CC)COC(=O)[C@H](C)N[P@](=O)(OC[C@H]1O[C@@](C#N)(c2ccc3c(N)ncnn23)[C@H](O)[C@@H]1O)Oc1ccccc1 [remdesivir]
- IC50 (SARS-CoV-2 WT [1]; Severe acute respiratory syndrome coronavirus 2, 48 h): 3.2 ± 0.1 nM
